Assay results taken from PMC12635268, “Novel antimicrobial peptides and peptide-microbiome crosstalk in Appalachian salamander skin” (NPJ Biofilms and Microbiomes, 2025).
Ends that are not written are not given here.

Tests used:
P. aeruginosa PA01 = assay: microbe, parasite or virus in culture; format: cell-based; conditions: P. aeruginosa 15692 (PAO1); Week 2 (12/14/2023)
Experimental: (§1) Antimicrobial susceptibility testing of the 20 synthesized peptides against 17 bacterial strains of clinical relevance in the ESKAPEE panel was conducted using minimum inhibitory concentration (MIC) assays following the broth microdilution method outlined by Parker et al.[91]. The ESKAPEE panel is comprised of fourteen American Type Culture Collection (ATCC) strains and three Multidrug Resistant Organism Repository and Surveillance Network (MRSN) bacterial strains. These strains represent at least one drug-susceptible strain and one drug-resistant strain for each bacterium to assess drug efficacy across various resistance mechanisms. This panel is comprised of the following bacterial species and strains: E. faecium (ATCC 19434, ATCC 49224), S. aureus (ATCC 25923, ATCC 43300), K. pneumoniae (ATCC 700603, ATCC 13883, MRSN 1320), A. baumannii (ATCC 17978, ATCC 19606, MRSN 959), P. aeruginosa (ATCC 15692, ATCC 27853, MRSN 5519), E. cloacae (ATCC 13047, ATCC 35549), and E. coli (ATCC 35218, ATCC 43888). Bacteria were grown in cation-adjusted Mueller-Hinton broth (CAMHB) to achieve a final inoculum of 1 × 10⁵ CFU/mL. CAMHB is selected for its batch-to-batch reproducibility, low levels of antimicrobial inhibitors, and ability to support the growth of most bacterial pathogens.
(§2) Briefly, lyophilized peptides were dissolved in 0.2% TFA + 0.4% BSA in water to 2.56 mg/mL, ultrasonicated for 20 min, diluted 10-fold into CAMHB, and then serially diluted 2-fold in 0.02% TFA + 0.04% BSA in CAMHB and assayed at a concentration of 0.25 to 128 μg/mL. Assays were set up using the Tecan Freedom EVO liquid handling robot and software (Tecan, Switzerland) with 50 μL of bacterial inoculum and 50 μL of peptide transferred into round-bottom 96-well microtiter plates. Each plate assay was performed in duplicate and incubated at 37 °C for 20 h without agitation. Bacterial growth was assessed using the BIOMIC V3 Image Analysis system (Giles Scientific, USA) and the MIC values were determined visually according to the Clinical and Laboratory Standards Institute (CLSI) guidelines.

S. aureus ATCC 43300 = assay: microbe, parasite or virus in culture; conditions: S. aureus 43300; Week 2 (12/14/2023)
Experimental: as §1, §2

P. aeruginosa MRSN 5519 = assay: microbe, parasite or virus in culture; conditions: MRSN 5519, 20 h
Experimental: as §1, §2

S. aureus ATCC 25923 = assay: microbe, parasite or virus in culture; conditions: ATCC 25923, 20 h
Experimental: as §1, §2

E. cloacae ATCC 13047 = assay: microbe, parasite or virus in culture; conditions: ATCC 13047, 20 h
Experimental: as §1, §2

E. coli ATCC 35218 = assay: microbe, parasite or virus in culture; conditions: E. coli 35218; Week 2 (12/14/2023)
Experimental: as §1, §2

E. faecium ATCC 49224 = assay: microbe, parasite or virus in culture; conditions: ATCC 49224, 20 h
Experimental: as §1, §2

[1] = test system: K. pneumoniae ATCC 700603; assay: microbe, parasite or virus in culture; conditions: K. pneumoniae 700603; Week 2 (12/14/2023)
Experimental: as §1, §2

K. pneumoniae ATCC 13883 = assay: microbe, parasite or virus in culture; conditions: ATCC 13883, 20 h
Experimental: as §1, §2

E. faecium ATCC 19434 = assay: microbe, parasite or virus in culture; conditions: ATCC 19434, 20 h
Experimental: as §1, §2

E. coli ATCC 43888 = assay: microbe, parasite or virus in culture; conditions: ATCC 43888, 20 h
Experimental: as §1, §2

P. aeruginosa ATCC 27853 = assay: microbe, parasite or virus in culture; conditions: ATCC 27853, 20 h
Experimental: as §1, §2

A. baumannii ATCC 19606 = assay: microbe, parasite or virus in culture; conditions: ATCC 19606, 20 h
Experimental: as §1, §2

A. baumannii ATCC 17978 = assay: microbe, parasite or virus in culture; conditions: ATCC 17978, 20 h
Experimental: as §1, §2

E. cloacae ATCC 35549 = assay: microbe, parasite or virus in culture; conditions: ATCC 35549, 20 h
Experimental: as §1, §2

K. pneumoniae 4640 = conditions: 4640, 20 h
[2] = parameters: method as in Biomatik (vendor); conditions: 1.0 mg peptide in 1.0 ml solvent; peptides synthesized by Biomatik; ref Biomatik (vendor); cited from earlier work
P. aeruginosa PA01 (Si) = assay: microbe, parasite or virus in culture; format: cell-based; conditions: Si
Description: Supplement 41522_2025_837_MOESM13_ESM.xlsx, sheet "Table_S13_ESKAPEE-MIC" | column: Bacterial MIC (µg/mL)

A. baumannii 5075 = conditions: Week 2 (12/14/2023)

DVGTQGLSPLR [PrAd-Eb22]
>128.000 mg/L: Bacterial MIC (P. aeruginosa PA01) | Bacterial MIC (S. aureus ATCC 43300) | Bacterial MIC (P. aeruginosa MRSN 5519) | Bacterial MIC (S. aureus ATCC 25923) | Bacterial MIC (E. cloacae ATCC 13047) | Bacterial MIC (E. coli ATCC 35218) | Bacterial MIC (E. faecium ATCC 49224) | Bacterial MIC [1] | Bacterial MIC (K. pneumoniae ATCC 13883) | Bacterial MIC (E. faecium ATCC 19434) | Bacterial MIC (E. coli ATCC 43888) | Bacterial MIC (P. aeruginosa ATCC 27853) | Bacterial MIC (A. baumannii ATCC 19606) | Bacterial MIC (A. baumannii ATCC 17978) | Bacterial MIC (E. cloacae ATCC 35549) | Bacterial MIC (K. pneumoniae 4640) | Bacterial MIC (P. aeruginosa PA01 (Si)) | Bacterial MIC (A. baumannii 5075)
1.0mg peptide soluble in 1.0ml H2O: Suggest solvent (solubility) [2]

KEGCKEIKGP [TrPr-Eb20]
1.0mg peptide soluble in 1.0ml H2O: Suggest solvent (solubility) [2]
>128.000 mg/L: Bacterial MIC (P. aeruginosa PA01) | Bacterial MIC (S. aureus ATCC 43300) | Bacterial MIC (P. aeruginosa MRSN 5519) | Bacterial MIC (S. aureus ATCC 25923) | Bacterial MIC (E. cloacae ATCC 13047) | Bacterial MIC (E. coli ATCC 35218) | Bacterial MIC (E. faecium ATCC 49224) | Bacterial MIC [1] | Bacterial MIC (K. pneumoniae ATCC 13883) | Bacterial MIC (E. faecium ATCC 19434) | Bacterial MIC (E. coli ATCC 43888) | Bacterial MIC (P. aeruginosa ATCC 27853) | Bacterial MIC (A. baumannii ATCC 19606) | Bacterial MIC (A. baumannii ATCC 17978) | Bacterial MIC (E. cloacae ATCC 35549) | Bacterial MIC (K. pneumoniae 4640) | Bacterial MIC (P. aeruginosa PA01 (Si)) | Bacterial MIC (A. baumannii 5075)
